Data as given in patent US20250186600A1, “EXCIPIENT COMPOUNDS FOR PROTEIN FORMULATIONS” (Comera Life Sciences, Inc., priority 2020, published 2025).
Values joined by “and” are separate entries in the source; they are usually repeats but may differ in a detail not shown here. Identical values can stand only once. One block for each molecule: values may come before it.

Experiments:
[1] = tested on: bovine gamma globulin (BGG); experiment: Normalized viscosity of BGG with caffeine and a secondary excipient (Example 40); format: physicochemical; conditions: BGG about 280 mg/mL, 20 mM histidine pH 6, 25° C.
BGG = conditions: Table 15; versus 130.6 cP with no excipient
bevacizumab (AVASTIN®) = experiment: Viscosity of AVASTIN with caffeine, microVisc (Example 39); format: physicochemical; conditions: for % Viscosity Reduction from Excipient: 10 mg/mL caffeine vs no excipient; for Viscosity with 10 mg/mL added caffeine excipient: 10 mg/mL caffeine, 25 mM histidine HCl
Method: Viscosity was measured by RheoSense microVisc and concentration was determined by absorbance at 280 nm (extinction coefficient, 1.605 mL/mg). […].

[2] = target: T1, PEGylated BSA with 1 PEG chain per BSA molecule (Bos taurus, UniProt P02769); experiment: Viscosity of PEGylated BSA with 1 PEG chain per BSA molecule (Example 16); format: physicochemical; conditions: Table 8; versus 228.6 cP with no excipient
T1 construct: purchased Aldrich A7906
Method: To a beaker was added 200 mL of a phosphate buffered saline (Aldrich Cat. #P4417) and 4 g of BSA (Aldrich Cat. #A7906) and mixed with a magnetic bar. Next 400 mg of methoxy polyethylene glycol maleimide, MW=5,000, (Aldrich Cat. #63187) was added. The reaction mixture was allowed to react overnight at room temperature. The following day, 20 drops of HCl 0.1 M were added to stop the reaction. […] The reaction mixture was placed in an Amicon centrifuge tube with a molecular weight cutoff (MWCO) of 30 kDa and concentrated to a few milliliters. Next the sample was diluted 20 times with a histidine buffer, 50 mM at a pH of approximately 6, followed by concentrating until a high viscosity fluid was obtained.
The viscometer measurements were completed at ambient temperature.

[3] = target: PEGylated lysozyme with multiple PEG chains per lysozyme molecule (Gallus gallus, UniProt P00698); conditions: Table 10
omalizumab = experiment: DLS viscosity of concentrated omalizumab with nicotinamide mononucleotide and itaconic acid (Example 52); format: physicochemical; conditions: 20 mM His HCl pH 6, excipient stock 1 M or solubility limit
[4] = tested on: bovine gamma globulin (BGG); experiment: Viscosity of 280 mg/mL BGG formulations with excipient compounds, cone and plate viscometer (Examples 1, 2, 4-6); format: physicochemical

PEGylated lysozyme with multiple PEG chains per lysozyme molecule, sequence (P00698 19-147): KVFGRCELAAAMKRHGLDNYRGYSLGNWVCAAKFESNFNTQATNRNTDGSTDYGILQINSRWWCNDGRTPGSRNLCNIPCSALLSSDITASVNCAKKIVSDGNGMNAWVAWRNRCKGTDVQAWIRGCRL
T1 sequence (P02769 25-607): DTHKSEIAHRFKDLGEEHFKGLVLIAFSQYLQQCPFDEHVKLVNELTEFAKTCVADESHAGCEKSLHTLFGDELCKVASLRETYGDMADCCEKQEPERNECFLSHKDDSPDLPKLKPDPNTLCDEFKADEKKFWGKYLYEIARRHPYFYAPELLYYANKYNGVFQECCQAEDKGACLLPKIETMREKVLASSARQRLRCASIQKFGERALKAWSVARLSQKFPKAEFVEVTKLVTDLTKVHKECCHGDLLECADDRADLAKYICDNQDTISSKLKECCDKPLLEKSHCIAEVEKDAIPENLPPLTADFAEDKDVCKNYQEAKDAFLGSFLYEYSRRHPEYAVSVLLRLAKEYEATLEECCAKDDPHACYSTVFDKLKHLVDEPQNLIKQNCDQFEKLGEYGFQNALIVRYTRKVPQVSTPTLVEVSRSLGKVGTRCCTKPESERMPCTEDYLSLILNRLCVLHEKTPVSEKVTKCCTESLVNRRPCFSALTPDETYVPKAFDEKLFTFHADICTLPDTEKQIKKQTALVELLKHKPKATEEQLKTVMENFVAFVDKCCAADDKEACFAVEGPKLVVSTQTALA

Molecule: N=C(N)NCCC[C@H](N)C(=O)O [Arginine, reference compound]
- Normalized Viscosity ([1]; Excipient A caffeine 15 mg/mL + Excipient B 20 mg/mL): 0.63
- Viscosity Reduction (%) (BGG): 41%

Molecule: Cn1c(=O)c2c(ncn2C)n(C)c1=O [Caffeine]
- % Viscosity Reduction from Excipient (bevacizumab (AVASTIN®); AVASTIN 190 mg/mL): 36%
- Viscosity with 10 mg/mL added caffeine excipient (bevacizumab (AVASTIN®); AVASTIN 190 mg/mL): 13 cP
- % Viscosity Reduction from Excipient (bevacizumab (AVASTIN®); AVASTIN 213 mg/mL): 73%
- Viscosity with 10 mg/mL added caffeine excipient (bevacizumab (AVASTIN®); AVASTIN 213 mg/mL): 22 cP
- % Viscosity Reduction from Excipient (bevacizumab (AVASTIN®); AVASTIN 266 mg/mL): 62%
- Viscosity with 10 mg/mL added caffeine excipient (bevacizumab (AVASTIN®); AVASTIN 266 mg/mL): 113 cP
- Normalized Viscosity ([1]; Excipient A caffeine 15 mg/mL, no Excipient B): 0.77
- Viscosity Reduction (%) (BGG): 33%

Molecule: CC(=O)[O-].[K+] [K acetate, potassium acetate]
- Viscosity Reduction [2]: 60%
- Viscosity (cP) ([3]; PEGylated lysozyme, 500 s-1, ambient temperature, excipient 20 mg/mL): 22.6 cP
- Viscosity Reduction ([3]; versus 24.6 cP with no excipient): 8%

- DLS Viscosity, Replicate 1 (omalizumab): 33.6 cP
- DLS Viscosity, Replicate 2 (omalizumab): 22.2 cP
Molecule: NC(=O)c1ccc[n+]([C@@H]2O[C@H](COP(=O)([O-])O)[C@@H](O)[C@H]2O)c1 [Nicotinamide mononucleotide]

Molecule: O=C([O-])c1ccccc1O.[Na+] [Sodium salicylate]
- Viscosity Reduction [4]: 28% and 34%
- Viscosity (cP) ([4]; pH 6): 57 cP and 52 cP

- Viscosity Reduction [2]: 34%
Molecule: Alpha-Cyclodextrin sulfated Na salt
